US8980917B2, “Methods for treating or preventing brain infections” (The Johns Hopkins University, priority 2008, dated 2015)
Entries after “also recorded” stand apart in the source; their conditions may differ. Like-named read-outs stand apart in the source and are kept apart here.

Assays:
HBMEC [1] = conditions: cited from earlier work; for E. coli invasion of human BMEC: inhibitors of iPLA2 and sPLA2, refs (1-3, 24); for E. coli invasion of HBMEC: pretreatment with microfilament-disrupting agents, previous experiments
human BMEC [2] = conditions: inhibitors of iPLA2 and sPLA2; refs (1-3, 24); cited from earlier work
HBMEC [3] = experiment: E. coli K1 binding and invasion assays in human BMEC (HBMEC); type: cell-based; conditions: for E. coli K1 invasion of HBMEC: strain RS218, HBMEC pretreated 30 mins, compared to vehicle control (DMSO); for E. coli K1 invasion of human BMEC monolayers: inhibitors of cPLA2α, Rho kinase, Rac1 and PKC
Protocol: E. coli strain RS218 was grown overnight in BHI broth in the presence of streptomycin (50 μg/ml). Bacteria were resuspended in experimental medium [M199-HamF12 (1:1) containing 5% heat-inactivated fetal bovine serum, 2 mM glutamine, and 1 mM pyruvate] and added in a multiplicity of infection (MOI) of 100:1 to HBMEC grown in collagen-coated 24-well plates at 37° C. in 5% CO2 incubator for 90 min for binding assay as described previously (9, 10, 14, 28). HBMEC were washed four times with PBS to remove unbound bacteria, lysed in 0.025% Triton X-100 and plated for determinations of CFUs. The results were calculated as a percent of the initial inoculum and expressed as percent relative binding compared to percent binding of RS218 in the presence of vehicle control (DMSO). Each set was run in triplicates.
The HBMEC invasion assay with gentamicin treatment was performed to determine the number of viable intracellular bacteria recovered from the infected HBMEC, as previously described (9, 10, 14, 28). E. coli K1 strain RS218 was added to HBMEC as described above for binding assay. HBMEC were subsequently washed with RPMI 1640 and incubated with experimental media containing gentamicin (100 μg/ml) for 1 h to kill extracellular bacteria. The cells were washed again with PBS and lysed in 0.025% Triton X-100. The released intracellular bacteria were enumerated by plating on sheep blood agar plates. The results were calculated as a percent of the initial inoculum and expressed as percent relative invasion compared to percent invasion of RS218 in the presence of vehicle control (DMSO). Each set was run in triplicates.
To examine the effects of inhibitors and antagonists on E. coli K1 binding to and invasion of HBMEC, HBMEC were pretreated with inhibitors or antagonists for 30 mins before addition of E. coli, and then processed for binding and invasion assays as described above.
E. coli strain RS218 (O18:K1:H7), a cerebrospinal fluid isolate from a neonate with meningitis, was grown overnight in brain heart infusion (BHI) broth (Difco Laboratories, Detroit, Mich.). Bacteria were resuspended in experimental medium [M199-HamF12 (1:1) containing 5% heat-inactivated fetal bovine serum, 2 mM glutamine, and 1 mM pyruvate] and added in a multiplicity of infection (MOI) of 100:1 to BMECs grown in collagen-coated 24-well plates at 37° C. in 5% CO2 incubator for 90 min for binding assay, as previously described^11. BMECs were washed four times with PBS to remove unbound bacteria, lysed in 0.025% Triton X-100 and plated for determinations of CFUs. The results were calculated as a percent of the initial inoculum and expressed as percent relative binding compared to percent binding of RS218 in the presence of vehicle control (DMSO). Each set was run in triplicates.
The BMEC invasion assay with gentamicin treatment^11 was performed to determine the number of viable intracellular bacteria recovered from the infected BMECs. E. coli K1 strain RS218 was added to BMEC as described above for binding assay. BMECs were subsequently washed with RPMI 1640 and incubated with experimental media containing gentamicin (100 μg/ml) for 1 h to kill extracellular bacteria. The cells were washed again with PBS, lysed in 0.025% Triton X-100, and the released intracellular bacteria were enumerated by plating on sheep blood agar plates. The results were calculated as a percent of the initial inoculum and expressed as percent relative invasion compared to percent invasion of RS218 in the presence of vehicle control (DMSO). Each set was run in triplicates.
E. coli. Human BMEC association and invasion assays were carried out as described previously (15). Briefly, for association assays, confluent human BMEC in 24-well tissue culture plates were incubated with 10^7 CFU of E. coli at a multiplicity of infection of 100 for 90 minutes at 37° C. […]

E. coli K1 strain RS218 = experiment: Mouse model of experimental hematogenous E. coli meningitis (5-LO-/- and wild-type 129SvEv mice); type: in vivo
Text: Female 5-LO−/− (129-Alox5^tm1Fun/J) and strain-matched (129SvEv) wild-type mice, 9˜12 week old and 18˜26 gm, were used (23). […] Most animals receiving 1×10^7 CFUs, however, died between one and two hour of intravenous inoculation. Based on these observations, we examined and compared E. coli K1 penetration into the brain at one hour following intravenous administration of 1×10^7 CFUs of strain RS218 in 5-LO−/− and wild type mice.
Mice were anesthetized with pentobarbital sodium given subcutaneously at 50 mg/kg and each mouse received 1×10^7 CFU of E. coli RS218 in 100 μl PBS via the tail vein. One hour later, mouse chest was cut open, and blood from right ventricle was collected and plated for bacterial counts (CFUs). The mouse was, then, perfused with a mammalian Ringer's solution by transcardiac perfusion through a 23-gauge needle inserted into the left ventricle of the heart under the perfusion pressure of about 100 mmHg. The perfusate exited through a cut in the right atrium. The composition of the mammalian Ringer solution was: (in mM) 132 NaCl, 4.6 KCl, 2 CaCl2, 1.2 MgSO4, 5.5 glucose, 5.0 NaHCO3, and 20 HEPES and Na-HEPES, containing 10 mg/ml BSA; pH of the Ringer solution was maintained at 7.40-7.45 by adjustment of the ratio of Na-HEPES to HEPES. […] Bacterial penetration into the brain was also expressed as (brain CFUs per gm/blood CFUs per ml)×100. […]

human BMEC [4] = experiment: Type III GBS binding and invasion assays in human BMEC; type: cell-based; conditions: inhibitors of cPLA2α, Rho kinase, Rac1 and PKC
Protocol: GBS. Logarithmic phase cultures of GBS grown in Todd-Hewitt broth at 37° C. were washed and suspended in tissue culture medium. Approximately 5×10^5 CFUs of GBS were added to confluent human BMEC grown in each well of a 24-well plate (Corning Costar, multiplicity of infection of 5 bacteria/cell). The plates were centrifuged at 800×g for 10 min to promote the contact of GBS to the surface of the human BMEC monolayer, and then they were incubated for 2 hr at 37° C. The monolayers were washed three times with PBS and incubated with medium containing gentamicin (100 μg/ml) and penicillin (5 μg/ml) at 37° for 2 hr to kill extracellular bacteria. The monolayers were washed again, lysed, and viable intracellular bacteria were enumerated by culturing onto sheep blood agar plates. The percent invasion was calculated as (the number of intracellular bacteria divided by the number of bacteria inoculated)×100. Each assay was run in triplicate and also repeated at least twice. In one set of experiments the total GBS associated with human BMEC were quantified by the above procedure except that the incubation with gentamicin/penicillin was omitted.
Briefly, human BMEC were pretreated with AACOCF3 for 60 min, and then processed for type III GBS and E. coli K1 binding and invasion assays, as described above.
We next examined the effect of montelukast on type III GBS and E. coli K1 invasion of human BMEC by the methods described earlier. Briefly, human BMEC were treated with monelukast for 60 min and then processed for binding and invasion assays with type III GBS strain K79 and E. coli K1 strain RS 218.

PKC = experiment: Activation of PKC and other signaling molecules in response to microbes in human BMEC; type: cell-based; conditions: response to type III GBS and E. coli K1 in human BMEC monolayers
Text: We have previously shown that RhoGTPases and PKC contribute to type III GBS and E. coli K1 invasion of BMEC monolayers (1-3), and our next studies were to examine whether cPLA2α activations are related to RhoGTPases and PKC in type III GBS and E. coli K1 invasion of human BMEC monolayers (e.g., up- and down-stream of each other) by using inhibitors of cPLA2α (AACOCF3), Rho kinase (Y-27632), Rac1 (NSC-23766) and PKC (calphostin C).

[5] = cited from earlier work

CC(=O)O[C@@H]1C[C@@H]2[C@@]3(C)CCCC(C)(C)[C@@H]3CC[C@@]2(C)[C@@H]2CC=C(C=O)[C@H](C=O)[C@@]12C [12-episcalaradial]
E. coli invasion of human BMEC (HBMEC [1]): did not exhibit any significant inhibition | GBS invasion of human BMEC (human BMEC [2]): did not exhibit any significant inhibition

O=C(O)C1(c2ccc3c(c2)OC[C@H](Cc2ccc(-c4ccccc4)cc2)[C@H]3O)CCCC1 [CP105696]
E. coli K1 invasion of HBMEC (HBMEC [3]): failed to affect E. coli K1 invasion of human BMEC monolayers; also recorded: failed to exhibit any inhibition of E. coli invasion of HBMEC

CCCCC/C=C\C\C=C/C=C/C=C/[C@@H](SC[C@H](N)C(=O)NCC(=O)O)[C@@H](O)CCCC(=O)O [LTD4]
E. coli penetration into the brains (E. coli K1 strain RS218; 5-LO-/- mice, one hour after i.v. E. coli K1 strain RS218): rescued the decreased E. coli penetration into the brains

CN(C)C(=O)CCSC(SCCC(=O)O)c1cccc(/C=C/c2ccc3ccc(Cl)cc3n2)c1 (stereo not shown) [MK571]
E. coli K1 invasion of HBMEC (HBMEC [3]): inhibited E. coli K1 invasion of human BMEC monolayers in a dose-dependent manner; also recorded: effective in inhibiting E. coli invasion of HBMEC in a dose-dependent manner | E. coli K1 penetration into the brain (brain CFU/gm and percent of brain CFU/blood CFU) (E. coli K1 strain RS218; wild type mice, oral 400 μg/mouse one hour before bacterial injection, one hour after i.v. 1×10^7 CFU): significantly decreased E. coli K1 penetration into the brain in the wild type mice; also recorded: significantly decreased E. coli K1 penetration into the brain of wild type mice

CC(C)c1ccc2c(c1)c(SC(C)(C)C)c(CC(C)(C)C(=O)O)n2Cc1ccc(Cl)cc1 [MK886]
E. coli K1 invasion of HBMEC (HBMEC [3]): significantly inhibited E. coli K1 invasion of HBMEC in a dose-dependent manner

CCN(CC)CCCC(C)Nc1nc(C)cc(Nc2ccc3nc(C)cc(N)c3c2)n1 (stereo not shown) [NSC-23766]
E. coli K1 invasion of human BMEC monolayers (HBMEC [3]): inhibited type III GBS and E. coli K1 invasion of human BMEC monolayers in a dose-dependent manner | type III GBS invasion of human BMEC monolayers (human BMEC [4]): inhibited type III GBS and E. coli K1 invasion of human BMEC monolayers in a dose-dependent manner | inhibition of other signaling molecules (PKC): did not exhibit any inhibition of other signaling molecules

C[C@@H](N)[C@H]1CC[C@H](C(=O)Nc2ccncc2)CC1 [Y-27632]
E. coli K1 invasion of human BMEC monolayers (HBMEC [3]): inhibited type III GBS and E. coli K1 invasion of human BMEC monolayers in a dose-dependent manner | type III GBS invasion of human BMEC monolayers (human BMEC [4]): inhibited type III GBS and E. coli K1 invasion of human BMEC monolayers in a dose-dependent manner | inhibition of other signaling molecules (PKC): did not exhibit any inhibition of other signaling molecules

O=C1O/C(=C/Br)CCC1c1cccc2ccccc12 (stereo not shown) [bromoenol lactone]
E. coli invasion of human BMEC (HBMEC [1]): did not exhibit any significant inhibition | GBS invasion of human BMEC (human BMEC [2]): did not exhibit any significant inhibition

C=C1[C@@H](C)[C@H]2[C@H](Cc3ccccc3)NC(=O)[C@]23[C@H](OC(C)=O)/C=C/[C@@](C)(O)C(=O)[C@@H](C)C/C=C/[C@H]3[C@@H]1O [cytochalasin D]
E. coli invasion of HBMEC (HBMEC [1]): inhibited

C/C1=C/C(=O)O[C@@H]2C[C@@H](CC[C@H](C)/C=C\C=C\CC1)O[C@@](O)([C@@H]1CSC(=O)N1)C2 [latrunculin A]
E. coli invasion of HBMEC (HBMEC [1]): inhibited

O=C(Nc1cccc2c(=O)cc(-c3nnn[nH]3)oc12)c1ccc(OCCCCc2ccccc2)cc1 [pranlukast]
safety and tolerability in clinical trials ([5]; in vivo): safe and well tolerated

COc1cc(C(=O)NS(=O)(=O)c2ccccc2C)ccc1Cc1cn(C)c2ccc(NC(=O)OC3CCCC3)cc12 [zafirlukast]
E. coli K1 invasion of HBMEC (HBMEC [3]): effective in inhibiting E. coli invasion of HBMEC in a dose-dependent manner | safety and tolerability in clinical trials ([5]; developed for asthma): safe and well tolerated

CC(c1cc2ccccc2s1)N(O)C(N)=O (stereo not shown) [zileuton, Zileuton]
E. coli K1 invasion of HBMEC (HBMEC [3]): significantly inhibited E. coli K1 invasion of HBMEC in a dose-dependent manner | safety and tolerability in clinical trials ([5]; developed for asthma): safe and well tolerated

calphostin C
E. coli K1 invasion of human BMEC monolayers (HBMEC [3]): inhibited type III GBS and E. coli K1 invasion of human BMEC monolayers in a dose-dependent manner | type III GBS invasion of human BMEC monolayers (human BMEC [4]): inhibited type III GBS and E. coli K1 invasion of human BMEC monolayers in a dose-dependent manner | inhibition of other signaling molecules (PKC): did not exhibit any inhibition of other signaling molecules
